Series [1] concerns normolipaemic golden hamster. Nature of the series: Determination of the lithogenic index in the normolipaemic golden hamster. Conditions: 20 days. Type of series: in vivo. As for the experimental part: IV. Determination of the lithogenic index in the normolipaemic golden hamster
The lithogenic index is a measure of susceptibility to gallstone formation and is defined as the […] in mol %. It was determined by the method of Carey and Small, described in J. Clin. Investig. 61, 998-1026 [1978]. The higher the lithogenic index, the higher the probability of gallstone formation. The determination of the lithogenic index was carried out as follows:
Male golden hamsters are fed ad lib with a cholesterol-free hamster diet for 20 days. The substance to be tested is admixed to the feed in concentrations of 0.01 to 0.1%. At the end of the experimental period, total cholesterol, the HDL fraction and also the VLDL+LDL fraction in the serum, and the bile acids, the cholesterol and the phospholipids in the bile are determined by standard methods.
The compound A described above was tested. The percentage decrease in the lithogenic index was determined relative to the control.

The nature of series [2]: Toxic effects in the mouse after oral administration. It counts as in vivo. Conditions: oral 100 mg/kg, once daily for 4 days. The source says: The compounds A to I appeared to be non-toxic at the curative dose.
Series [3] has as its system 2,3-epoxysqualene-lanosterol cyclase. Nature of the series: In vivo effect in the rat after oral administration: 2,3-epoxysqualene level in plasma. More on the design: species or system rat (male Wistar). Conditions: 5 hours after administration. The method, then: II. Measurement of the in vivo effect in the rat after oral administration
The inhibition of the enzyme 2,3-epoxysqualene-lanosterol cyclase causes an increase in the 2,3-epoxy-squalene level in the liver and plasma. Therefore, the amount of 2,3-epoxysqualene formed therefore serves as a direct measure of the effectiveness in the whole animal. The determination is carried out by the following method:
The test substance suspended in 1.5% strength aqueous methylcellulose is administered via stomach tube to male Wistar rats (160-190 g body weight). 5 hours after administration, blood is obtained retroorbitally from the venous plexus. Plasma is extracted by the method of Bligh and Dyer (Canad. J. Biochem. Physiol. 37, 912, [1959]), purified by means of a precolumn and then analyzed by means of HPLC. The peaks obtained are identified and quantified by means of calibration substances. An internal standard is used to check the reproducibility of the results.
The investigations were carried out using concentrations of 0.1 and 1.0 mg/kg. The results for the above mentioned substances A to M are compiled in the following Table by way of example: […]

In series [4] the test system is Normal human epidermal keratinocytes (NHEK). Nature of the series: Inhibition of cell proliferation of keratinocytes. It counts as cell-based. The note with it: read-out: percentage decrease in cell numbers. As for the experimental part: V. Inhibition of cell proliferation
Normal human epidermal keratinocytes (NHEK) are cultured under sterile conditions in keratinocyte growth medium (Gibco) in a humidified, 5% CO2 -containing atmosphere. Cells of the third passage are inoculated at a density of 12,000 cells/ml.
After 24 hours, the test substance is added to the medium and the number of cells is determined after a further 48 hours. The results were calculated in comparison to a control and are indicated as the percentage decrease in cell numbers.
The proliferation-inhibiting action of the above mentioned compound A was tested in comparison to simvastatin at concentrations of 10^-6 to 10^-10 mol/l.

In series [5] the test system is normolipaemic golden hamster. Nature of the series: Lipid reduction in the normolipaemic golden hamster. The note with it: 12 days, vs control group. It counts as in vivo. The method, then:
III. Lipid reduction in the normolipaemic golden hamster
Male golden hamsters are fed ad lib with a cholesterol-free hamster diet for 12 days. The substance to be tested is admixed to the feed in concentrations of 0.01 to 0.10%. At the end of the experimental period, the total cholesterol, the HDL fraction and also the VLDL+LDL fraction are determined by standard methods, a control group fed without test substance being used for comparison.
The hypolipidaemic activity of the above mentioned compound A was tested.

In series [6] the test system is human hepatoma cells (HEP-G2). Nature of the series: Inhibition of 14C-acetate incorporation in digitonin-precipitatable steroids in HEP-G2 cells. Type of series: cell-based. The note with it: Homo sapiens; for percent change in 14C-acetate incorporation into sterols at 0.1 µM: HepG2, 10^-7 mol/l; for percent change in 14C-acetate incorporation into sterols at 0.01 µM: HepG2, 10^-8 mol/l. The method, then:
I. Measurement of the inhibition of ^14 C-acetate incorporation in digitonin-precipitatable steroids:
After 3 days of culture, human hepatoma cells (HEP-G2) are stimulated for 16 hours in cholesterol-free medium. The substances to be tested (dissolved in dimethyl sulphoxide, final concentration 0.1%) are added during this stimulation phase. After the addition of 200 μmol/l of 2-^14 C-acetate, the mixture is then reincubated at 37° C. for a further 2 hours.
The cells are detached and the sterol esters are hydrolyzed and, after extraction, sterols are precipitated using digitonin. The ^14 C-acetate incorporated into digitonin-precipitatable sterols is determined by scintillation measurement.
The investigation of the inhibitory action was carried out at test concentrations of 10^-7 mol/l and 10^-8 mol/l. The test results of the following compounds A to AG of the general formula I are indicated at these test concentrations by way of example: […]

Series [7] concerns laying hens. Conditions: FASEB Journal 4, A 533 [1990]; cited from earlier work.
The test system of series [8] is smooth muscle cell. Conditions: Cardiovasc. Drugs Ther. 5, Suppl. 3, 354 [1991]; cited from earlier work.
The conditions of series [9]: cited from earlier work.
The conditions of series [10]: J. Biol. Chemistry 265, 18075-18078 [1990]; cited from earlier work.
Setting [11] is: Gut 31, 348-350 [1990], Z. Gastroenterol. 29, 242-245 [1991].

Each structure is given as a SMILES string. Where two headings read alike, the source gives them in different places.

`O=C(c1ccc(Cl)cc1)N1CCC(=Cc2ccc(C3=NCCO3)cc2)CC1` [A, 1-(4-chlorobenzoyl)-4-[4-(2-oxazolin-2-yl)benzylidene]piperidine]: the “Lithogenic Index (percentage decrease relative to control)” value in series [1] (0.01% in feed) is -24%; in series [1] (0.03% in feed, n.s. = not significant), -10%; in [1] (0.1% in feed), -28%. In series [2], the “toxic effects in the mouse” value was “no toxic effects”. The results for the “2,3-Epoxysqualene concentration in plasma (rat)” value (from here on “2,3-Epoxysqualene concentration”) in [3] (0.1 mg/kg oral) and in [3] (1.0 mg/kg oral) were 0.71 µg/mL and 3.75 µg/mL, respectively. Moreover, the inhibition at 1 µM in series [4] (10^-6 mol/l, 48 hours) is 72%. Further, in series [4] (10^-7 mol/l, 48 hours), the inhibition at 0.1 µM was 73%. Besides, in series [4] (10^-8 mol/l, 48 hours), the inhibition at 0.01 µM came out at 70%. In addition, in series [4] (10^-9 mol/l, 48 hours), the inhibition at 0.001 µM amounted to 48%. The inhibition at 0.0001 µM in series [4] (10^-10 mol/l, 48 hours) stood at 16%. The HDL in [5] (0.01% in feed) is -12.4%; in series [5] (0.03% in feed), -17.5%; in [5] (0.10% in feed), -13.9%. For the same molecule, the “Total Cholesterol” value is -19.8% in series [5] (0.01% in feed), -26.3% in series [5] (0.03% in feed) and -25.8% in [5] (0.10% in feed). Further, the results for the “VLDL + LDL” value in [5] (0.01% in feed), in series [5] (0.03% in feed) and in series [5] (0.10% in feed) were -25.0%, -31.2% and -36.6%, respectively. Further, in series [6], the percent change in 14C-acetate incorporation into sterols at 0.1 µM is -81%. Also, the percent change in 14C-acetate incorporation into sterols at 0.01 µM in [6] was -58%.

Consider `O=C(C1CCCCC1)N1CCC(=Cc2ccc(C3=NCCO3)cc2)CC1` [G, 1-cyclohexanecarbonyl-4-[4-(2-oxazolin-2-yl)benzylidene]piperidine], for which the “2,3-Epoxysqualene concentration” value in series [3] (0.1 mg/kg oral) is 0.36 µg/mL; in [3] (1.0 mg/kg oral), 0.31 µg/mL. Further, in series [6], the percent change in 14C-acetate incorporation into sterols at 0.1 µM is -80%. Also, in [6], the percent change in 14C-acetate incorporation into sterols at 0.01 µM was -45%.

Take `O=C(c1ccc(C(F)(F)F)cc1)N1CCC(Cc2ccc(C3=NCCO3)cc2)CC1` [H, 4-[4-(2-oxazolin-2-yl)benzyl]-1-(4-trifluoromethylbenzoyl)piperidine]: the “toxic effects in the mouse” value in series [2] was “no toxic effects”. For the same molecule, in series [3] (0.1 mg/kg oral), the “2,3-Epoxysqualene concentration” value was 1.70 µg/mL. Besides, the “2,3-Epoxysqualene concentration” value in series [3] (1.0 mg/kg oral) turned out to be 9.15 µg/mL. Also, in [6], the percent change in 14C-acetate incorporation into sterols at 0.1 µM is -86% and the percent change in 14C-acetate incorporation into sterols at 0.01 µM is -62%.

With `O=C(c1ccc(Cl)cc1)N1CCC(=Cc2ccc(C3=NCCO3)cc2)C1` [K, 1-(4-chlorobenzoyl)-3-[4-(2-oxazolin-2-yl)benzylidene]pyrrolidine], the “2,3-Epoxysqualene concentration” value in series [3] (0.1 mg/kg oral) came to 0.0 µg/mL. Further, the “2,3-Epoxysqualene concentration” value in [3] (1.0 mg/kg oral) stood at 4.14 µg/mL. Further, in series [6], the percent change in 14C-acetate incorporation into sterols at 0.1 µM was -90% and the percent change in 14C-acetate incorporation into sterols at 0.01 µM was -56%.

As for `O=C(c1ccc(Cl)cc1)N1CCC(=Cc2ccc(C3=NCCO3)cc2F)CC1` [L, 1-(4-chlorobenzoyl)-4-[2-fluoro-4-(2-oxazolin-2-yl)benzylidene]piperidine], the “2,3-Epoxysqualene concentration” value in series [3] (0.1 mg/kg oral) turned out to be 0.44 µg/mL. The “2,3-Epoxysqualene concentration” value in series [3] (1.0 mg/kg oral) is 6.46 µg/mL. In [6], the percent change in 14C-acetate incorporation into sterols at 0.1 µM was -83% and the percent change in 14C-acetate incorporation into sterols at 0.01 µM was -52%.

`Cc1cc(C=C2CCN(C(=O)c3ccc(Cl)cc3)CC2)ccc1C1=NCCO1` [M, 1-(4-chlorobenzoyl)-4-[3-methyl-4-(2-oxazolin-2-yl)benzylidene]piperidine]: the “2,3-Epoxysqualene concentration” value in [3] (0.1 mg/kg oral) is 0.78 µg/mL. Also, in [3] (1.0 mg/kg oral), the “2,3-Epoxysqualene concentration” value turned out to be 6.53 µg/mL. Besides, in [6], the percent change in 14C-acetate incorporation into sterols at 0.1 µM is -76% and the percent change in 14C-acetate incorporation into sterols at 0.01 µM is -32%.

As for `CCC(C)(C)C(=O)O[C@H]1C[C@@H](C)C=C2C=C[C@H](C)[C@H](CC[C@@H]3C[C@@H](O)CC(=O)O3)[C@H]21` [Simvastatin, simvastatin, reference compound], in series [4] (48 h), the inhibition at 0.0001 µM amounted to 7%, the inhibition at 0.001 µM amounted to 21%, the inhibition at 0.01 µM came to 20% and the inhibition at 0.1 µM worked out at 51%. For the same molecule, the inhibition at 1 µM in series [4] (48 h) worked out at 68%.

In the case of `CC[C@H](C)C(=O)O[C@H]1C[C@@H](C)C=C2C=C[C@H](C)[C@H](CC[C@@H]3C[C@@H](O)CC(=O)O3)[C@H]21` [lovastatin], the “cholesterol content of eggs” value in series [7] is “lowering of the cholesterol content of eggs”. In addition, in [8], the “smooth muscle cell proliferation” value is listed as “inhibition of smooth muscle cell proliferation”. For the same molecule, in series [9] (setting [11]), the “cholesterol concentration in the bile / lithogenic index” value is “can cause a reduction of the cholesterol concentration in the bile” and the gallstone formation result was “do not lead to increased gallstone formation”. Also, in series [9] (in particular in combination with ursodeoxycholic acid, Gastroenterology 102, A 319 [1992]), the dissolution of gallstones entry is recorded as “effectiveness”.

For the molecule `CC[C@H](C)C(=O)O[C@H]1C[C@H](O)C=C2C=C[C@H](C)[C@H](CC[C@@H](O)C[C@@H](O)CC(=O)O)[C@H]21` [pravastatin], the “cholesterol concentration in the bile / lithogenic index” value in series [9] (setting [11]) is listed as “can cause a reduction of the cholesterol concentration in the bile”. For the same molecule, the gallstone formation entry in series [9] (in vivo) was “do not lead to increased gallstone formation”.

Turning to `CCN(CC)CCOc1ccc(C(O)(Cc2ccc(Cl)cc2)c2ccc(C)cc2)cc1` (centres unmarked) [triparanol], the “toxic effects leading to withdrawal from the market” value in [10] is “formation of cataracts, ichthyosis and alopecia”.

Values taken from patent US5466687A, “Arylidene-1-azacycloalkanes and arylalkyl-1-azacyclo-alkanes, their salts, medicaments containing these compounds and their use, and processes for their preparation” (priority 1992, dated 1995).
